Results published in patent US9951088B2, “D2 receptor modulators and methods of use thereof in the treatment of diseases and disorders” (SUNOVION PHARMACEUTICALS INC., priority 2012, dated 2018).
One block for each compound: values may come before it.

Legend:
[1] = biological target: T1, long isoform of human D2 receptor (Homo sapiens, UniProt P14416); assay: Arrestin Antagonist Assay (DRD2L PathHunter CHO-K1 cells, vs EC80 dopamine); details: for Emax: CHO-K1, read-out: β-arrestin (antagonist mode) Imax
Protocol: Cell Lines: Activities of the compounds were assessed using a Chinese Hamster Ovary (CHO—K1) cell line that recombinantly expressed the long isoform of human D2 receptor (DRD2L PathHunter cells). The D2 receptor DNA sequence was modified to contain a “ProLink” at its C-terminus which allowed complementation with an “enzyme acceptor” (EA)-tagged β-arrestin protein. The recruitment of the O-arrestin by the D2 receptor led to complementation of the ProLink and EA and formation of active β-galactosidase which generated a D2-specific signal that was measured.
Arrestin Antagonist Assay: One day prior to testing, a vial of high density stock of DRD2L PathHunter cells was thawed, and 1×10^7 cells diluted into 40 mL of growth media (Ham's F12/10% HI FBS/1% PSG). 20 μL cells per well were seeded directly into assay plates, and the plates were allowed to rest for 1 h at RT before incubating in a plate incubator overnight.
The plate was incubated for 30 min at 37° C. 15 μL PathHunter detection reagent was added to each well of the assay plate, which was then covered and incubated for 1 h at RT. The plate was read on an Envision reader using the Luminescence protocol, and the data were exported for analysis.
The IC50 values (concentration producing a half-maximal inhibitory response) were determined by non-linear regression analysis of the concentration-response curves.

[2] = biological target: T1, long isoform of human D2 receptor; assay: cAMP HTRF Agonist Assay (DRD2L PathHunter CHO-K1 cells, forskolin-stimulated); details: for Emax: CHO-K1, read-out: cAMP (agonist mode) Emax
[3] = biological target: T1, long isoform of human D2 receptor; assay: Arrestin Agonist Assay (DRD2L PathHunter CHO-K1 cells, β-arrestin recruitment); details: for Emax: CHO-K1, read-out: β-arrestin (agonist mode) Emax

T1 sequence (P14416 whole entry, canonical isoform): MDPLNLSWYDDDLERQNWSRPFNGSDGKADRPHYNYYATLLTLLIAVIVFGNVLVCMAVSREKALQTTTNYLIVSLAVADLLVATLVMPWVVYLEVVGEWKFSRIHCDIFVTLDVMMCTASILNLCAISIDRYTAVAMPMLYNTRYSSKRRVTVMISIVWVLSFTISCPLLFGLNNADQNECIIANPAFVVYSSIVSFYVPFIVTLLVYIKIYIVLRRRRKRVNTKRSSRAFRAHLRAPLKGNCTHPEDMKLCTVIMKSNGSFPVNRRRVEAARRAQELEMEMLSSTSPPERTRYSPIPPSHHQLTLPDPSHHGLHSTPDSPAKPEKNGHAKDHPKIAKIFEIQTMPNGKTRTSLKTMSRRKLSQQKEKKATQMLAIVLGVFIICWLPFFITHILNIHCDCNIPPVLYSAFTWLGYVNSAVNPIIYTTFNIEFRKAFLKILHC

SMILES: Clc1ccccc1N1CCN(CCCCOc2ccc3cn[nH]c3c2)CC1 [Compound 97, 6-(4-(4-(2-chlorophenyl)piperazin-1-yl)butoxy)-1H-indazole]
IC50 [1]: 10 to 100 nM
Emax [1]: 50 to 75%
IC50 [2]: < 10 nM
Emax [2]: 50 to 75%
EC50 [3]: < 10 nM
Emax [3]: 10 to 25%

SMILES: O=C1CCc2ccc(OCCCCN3CCc4c(cnn4-c4ccccc4)C3)cc2N1 [Compound 31, 7-(4-(1-phenyl-6,7-dihydro-1H-pyrazolo[4,3-c]pyridin-5(4H)-yl)butoxy)-3,4-dihydroquinolin-2(1H)-one]
IC50 [1]: > 10000 nM
Emax [1]: < 10%
IC50 [2]: < 10 nM
Emax [2]: > 75%
EC50 [3]: < 10 nM
Emax [3]: > 75%

SMILES: O=C1CCc2ccc(OCCCCN3CCc4nn(-c5cccc(F)c5)cc4C3)cc2N1 [Compound 36, 7-(4-(2-(3-fluorophenyl)-6,7-dihydro-2H-pyrazolo[4,3-c]pyridin-5(4H)-yl)butoxy)-3,4-dihydroquinolin-2(1H)-one]
IC50 [1]: > 10000 nM
Emax [1]: < 10%
IC50 [2]: < 10 nM
Emax [2]: > 75%
EC50 [3]: < 10 nM
Emax [3]: > 75%

SMILES: O=C1CCc2ccc(OCCCCN3CCc4nn(-c5ccccc5)cc4C3)cc2N1 [Compound 30, 7-(4-(2-phenyl-6,7-dihydro-2H-pyrazolo[4,3-c]pyridin-5(4H)-yl)butoxy)-3,4-dihydroquinolin-2(1H)-one]
IC50 [1]: 10 to 100 nM
Emax [1]: > 75%
IC50 [2]: 10 to 100 nM
Emax [2]: 25 to 50%
EC50 [3]: < 10 nM
Emax [3]: 10 to 25%

SMILES: O=C1CCc2ccc(OCCCCN3CCc4cc(F)ccc4C3)nc2N1 [Compound 72, 7-(4-(6-fluoro-3,4-dihydroisoquinolin-2(1H)-yl)butoxy)-3,4-dihydro-1,8-naphthyridin-2(1H)-one]
IC50 [1]: 10 to 100 nM
Emax [1]: > 75%
IC50 [2]: > 10000 nM
Emax [2]: < 10%
EC50 [3]: > 10000 nM
Emax [3]: < 10%

SMILES: COc1ccc2c(c1)CCN(CCCCOc1ccc3ccc(=O)[nH]c3n1)C2 [Compound 55, 7-(4-(6-methoxy-3,4-dihydroisoquinolin-2(1H)-yl)butoxy)-1,8-naphthyridin-2(1H)-one]
IC50 [1]: < 10 nM
Emax [1]: > 75%
IC50 [2]: < 10 nM
Emax [2]: 25 to 50%
EC50 [3]: < 10 nM
Emax [3]: 10 to 25%

SMILES: CCCOc1cccnc1N1CCN(CCCCOc2ccc3cccc(O)c3n2)CC1 [Compound 11, 2-(4-(4-(3-propoxypyridin-2-yl)piperazin-1-yl)butoxy)quinolin-8-ol]
IC50 [1]: 100 to 1000 nM
Emax [1]: > 75%
IC50 [2]: > 10000 nM
Emax [2]: < 10%
EC50 [3]: > 10000 nM
Emax [3]: < 10%

SMILES: O=C1CCc2ccc(OCCCCN3CCc4cc(Cl)ccc4C3)nc2N1 [Compound 75, 7-(4-(6-chloro-3,4-dihydroisoquinolin-2(1H)-yl)butoxy)-3,4-dihydro-1,8-naphthyridin-2(1H)-one]
IC50 [1]: 10 to 100 nM
Emax [1]: > 75%
IC50 [2]: < 10 nM
Emax [2]: 10 to 25%
EC50 [3]: > 10000 nM
Emax [3]: < 10%

SMILES: O=c1ccc2ccc(OCCCCN3CCc4ccsc4C3)nc2[nH]1 [Compound 54, 7-(4-(4,5-dihydrothieno[2,3-c]pyridin-6(7H)-yl)butoxy)-1,8-naphthyridin-2(1H)-one]
IC50 [1]: < 10 nM
Emax [1]: > 75%
IC50 [2]: > 10000 nM
Emax [2]: < 10%
EC50 [3]: > 10000 nM
Emax [3]: < 10%

IC50 [1]: > 10000 nM
Emax [1]: < 10%
IC50 [2]: < 10 nM
Emax [2]: > 75%
EC50 [3]: < 10 nM
Emax [3]: 50 to 75%
SMILES: N#Cc1cccc2c1CCN(CCCCOc1ccc3ccc(=O)[nH]c3n1)C2 [Compound 62, 2-(4-((7-oxo-7,8-dihydro-1,8-naphthyridin-2-yl)oxy)butyl)-1,2,3,4-tetrahydroisoquinoline-5-carbonitrile]

SMILES: CCn1cc2c(n1)CCN(CCCCOc1ccc3c(c1)NC(=O)CC3)C2 [Compound 34, 7-(4-(2-ethyl-6,7-dihydro-2H-pyrazolo[4,3-c]pyridin-5(4H)-yl)butoxy)-3,4-dihydroquinolin-2(1H)-one]
IC50 [1]: > 10000 nM
Emax [1]: < 10%
IC50 [2]: 100 to 1000 nM
Emax [2]: 50 to 75%
EC50 [3]: 100 to 1000 nM
Emax [3]: 50 to 75%

SMILES: O=C1CCc2ccc(OCCCCN3CCc4nn(-c5ccccn5)cc4C3)cc2N1 [Compound 38, 7-(4-(2-(pyridin-2-yl)-6,7-dihydro-2H-pyrazolo[4,3-c]pyridin-5(4H)-yl)butoxy)-3,4-dihydroquinolin-2(1H)-one]
IC50 [1]: 10 to 100 nM
Emax [1]: 25 to 50%
IC50 [2]: < 10 nM
Emax [2]: 50 to 75%
EC50 [3]: < 10 nM
Emax [3]: 25 to 50%

SMILES: O=C1CCc2ccc(OCCCCN3CCc4ncsc4C3)cc2N1 [Compound 26, 7-(4-(6,7-dihydrothiazolo[5,4-c]pyridin-5(4H)-yl)butoxy)-3,4-dihydroquinolin-2(1H)-one]
IC50 [1]: 1000 to 10000 nM
Emax [1]: > 75%
IC50 [2]: 10 to 100 nM
Emax [2]: 25 to 50%
EC50 [3]: < 10 nM
Emax [3]: 10 to 25%

SMILES: O=C1CCc2ccc(OCCCCN3CCc4c(cccc4C(F)(F)F)C3)nc2N1 [Compound 77, 7-(4-(5-(trifluoromethyl)-3,4-dihydroisoquinolin-2(1H)-yl)butoxy)-3,4-dihydro-1,8-naphthyridin-2(1H)-one]
IC50 [1]: > 10000 nM
Emax [1]: < 10%
IC50 [2]: 10 to 100 nM
Emax [2]: 50 to 75%
EC50 [3]: 100 to 1000 nM
Emax [3]: 50 to 75%

SMILES: O=C1CCc2ccc(OCCCCN3CCc4sccc4C3)nc2N1 [Compound 69, 7-(4-(6,7-dihydrothieno[3,2-c]pyridin-5(4H)-yl)butoxy)-3,4-dihydro-1,8-naphthyridin-2(1H)-one]
IC50 [1]: 10 to 100 nM
Emax [1]: > 75%
IC50 [2]: > 10000 nM
Emax [2]: < 10%
EC50 [3]: > 10000 nM
Emax [3]: < 10%

SMILES: O=c1ccc2ccc(OCCCCN3CCc4cc(C(F)(F)F)ccc4C3)nc2[nH]1 [Compound 58, 7-(4-(6-(trifluoromethyl)-3,4-dihydroisoquinolin-2(1H)-yl)butoxy)-1,8-naphthyridin-2(1H)-one]
IC50 [1]: 10 to 100 nM
Emax [1]: > 75%
IC50 [2]: < 10 nM
Emax [2]: 25 to 50%
EC50 [3]: < 10 nM
Emax [3]: 10 to 25%

SMILES: O=c1ccc2ccc(OCCCCN3CCc4c(Cl)cccc4C3)nc2[nH]1 [Compound 60, 7-(4-(5-chloro-3,4-dihydroisoquinolin-2(1H)-yl)butoxy)-1,8-naphthyridin-2(1H)-one]
IC50 [1]: > 10000 nM
Emax [1]: < 10%
IC50 [2]: < 10 nM
Emax [2]: > 75%
EC50 [3]: < 10 nM
Emax [3]: > 75%

SMILES: O=C1NCCc2ccc(OCCCCN3CCc4nn(-c5ccccn5)cc4C3)nc2N1 [Compound 90, 8-(4-(2-(pyridin-2-yl)-6,7-dihydro-2H-pyrazolo[4,3-c]pyridin-5(4H)-yl)butoxy)-4,5-dihydro-1H-pyrido[2,3-d][1,3]diazepin-2(3H)-one]
IC50 [1]: > 10000 nM
Emax [1]: < 10%
IC50 [2]: < 10 nM
Emax [2]: > 75%
EC50 [3]: 10 to 100 nM
Emax [3]: > 75%

SMILES: O=C1CCc2ccc(OCCCCN3CCc4ccsc4C3)nc2N1 [Compound 70, 7-(4-(4,5-dihydrothieno[2,3-c]pyridin-6(7H)-yl)butoxy)-3,4-dihydro-1,8-naphthyridin-2(1H)-one]
IC50 [1]: 100 to 1000 nM
Emax [1]: > 75%
IC50 [2]: > 10000 nM
Emax [2]: < 10%
EC50 [3]: > 10000 nM
Emax [3]: < 10%

SMILES: O=C1CCc2ccc(OCCCCN3CCc4nccnc4C3)cc2N1 [Compound 25, 7-(4-(7,8-dihydropyrido[3,4-b]pyrazin-6(5H)-yl)butoxy)-3,4-dihydroquinolin-2(1H)-one]
IC50 [1]: 1000 to 10000 nM
Emax [1]: 25 to 50%
IC50 [2]: 1000 to 10000 nM
Emax [2]: 50 to 75%
EC50 [3]: 100 to 1000 nM
Emax [3]: 25 to 50%

SMILES: Oc1cccc2ccc(OCCCCN3CCN(c4cccc5ccccc45)CC3)nc12 [Compound 6, 2-(4-(4-(naphthalen-1-yl)piperazin-1-yl)butoxy)quinolin-8-ol]
IC50 [1]: 100 to 1000 nM
Emax [1]: 50 to 75%
IC50 [2]: 10 to 100 nM
Emax [2]: 25 to 50%
EC50 [3]: 100 to 1000 nM
Emax [3]: 25 to 50%

IC50 [1]: 100 to 1000 nM
Emax [1]: > 75%
IC50 [2]: > 10000 nM
Emax [2]: < 10%
EC50 [3]: > 10000 nM
Emax [3]: < 10%
SMILES: N#Cc1cccc2c1CN(CCCCOc1ccc3c(n1)NC(=O)CC3)CC2 [Compound 80, 2-(4-((7-oxo-5,6,7,8-tetrahydro-1,8-naphthyridin-2-yl)oxy)butyl)-1,2,3,4-tetrahydroisoquinoline-8-carbonitrile]

IC50 [1]: 10 to 100 nM
Emax [1]: 25 to 50%
IC50 [2]: < 10 nM
Emax [2]: > 75%
EC50 [3]: < 10 nM
Emax [3]: 25 to 50%
SMILES: N#Cc1cccnc1N1CCN(CCCCOc2cccc(-c3cc[nH]n3)n2)CC1 [Compound 48, 2-(4-(4-((6-(1H-pyrazol-3-yl)pyridin-2-yl)oxy)butyl)piperazin-1-yl)nicotinonitrile]

SMILES: Cc1cccc(N2CCN(CCCCOc3ccc4cn[nH]c4c3)CC2)c1C [Compound 95, 6-(4-(4-(2,3-dimethylphenyl)piperazin-1-yl)butoxy)-1H-indazole]
IC50 [1]: 10 to 100 nM
Emax [1]: > 75%
IC50 [2]: 10 to 100 nM
Emax [2]: 10 to 25%
EC50 [3]: > 10000 nM
Emax [3]: < 10%

SMILES: Cc1ccc2c(c1)CN(CCCCOc1ccc3c(n1)NC(=O)CC3)CC2 [Compound 81, 7-(4-(7-methyl-3,4-dihydroisoquinolin-2(1H)-yl)butoxy)-3,4-dihydro-1,8-naphthyridin-2(1H)-one]
IC50 [1]: 10 to 100 nM
Emax [1]: > 75%
IC50 [2]: > 10000 nM
Emax [2]: < 10%
EC50 [3]: > 10000 nM
Emax [3]: < 10%

SMILES: O=c1ccc2ccc(OCCCCN3CCc4c(cccc4C(F)(F)F)C3)nc2[nH]1 [Compound 61, 7-(4-(5-(trifluoromethyl)-3,4-dihydroisoquinolin-2(1H)-yl)butoxy)-1,8-naphthyridin-2(1H)-one]
IC50 [1]: > 10000 nM
Emax [1]: < 10%
IC50 [2]: < 10 nM
Emax [2]: > 75%
EC50 [3]: 10 to 100 nM
Emax [3]: > 75%
